Assay results taken from PubChem BioAssay AID248 (DTP/NCI, 2004).
Where “and” joins values, the source holds several entries; their conditions need not be identical. Equal entries are not always repeated. Inconclusive results and toxic doses are left out. Cut-off read from the data, not from the text of the source: active = T/C of 150% or more; inactive = T/C below 125%.

Test system: L1210 leukemia ip in BDF1 mice, survival T/C
Assay: NCI In Vivo Anticancer Drug Screen. Data for tumor model L1210 Leukemia (intraperitoneal) in B6D2F1 (BDF1) mice
Conditions: endpoint: mean survival time, higher = longer survival
Summary of the method: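 Tumor cells were implanted, animals were treated, and survival was followed. The result divides the treated measurement by the vehicle-control measurement.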

[1] = dose: 100.0 mg/kg/injection, schedule: Q01DX001 (ip), vehicle: saline
[2] = dose: 100.0 mg/kg/injection, schedule: Q01DX009 (ip), vehicle: saline
[3] = dose: 100.0 mg/kg/injection, schedule: Q04DX003 (ip), vehicle: saline
[4] = dose: 200.0 mg/kg/injection, schedule: Q01DX001 (ip), vehicle: saline
[5] = dose: 200.0 mg/kg/injection, schedule: Q01DX009 (ip), vehicle: saline
[6] = dose: 200.0 mg/kg/injection, schedule: Q04DX003 (ip), vehicle: saline
[7] = dose: 400.0 mg/kg/injection, schedule: Q01DX001 (ip), vehicle: saline
[8] = dose: 400.0 mg/kg/injection, schedule: Q01DX009 (ip), vehicle: saline
[9] = dose: 400.0 mg/kg/injection, schedule: Q04DX003 (ip), vehicle: saline
[10] = dose: 100.0 mg/kg/injection, schedule: Q01DX009 (ip), vehicle: Klucel (hydroxypropylcellulose) (HPC)
[11] = dose: 100.0 mg/kg/injection, schedule: Q04DX003 (ip), vehicle: Klucel (hydroxypropylcellulose) (HPC)
[12] = dose: 200.0 mg/kg/injection, schedule: Q01DX009 (ip), vehicle: Klucel (hydroxypropylcellulose) (HPC)
[13] = dose: 200.0 mg/kg/injection, schedule: Q04DX003 (ip), vehicle: Klucel (hydroxypropylcellulose) (HPC)
[14] = dose: 400.0 mg/kg/injection, schedule: Q01DX009 (ip), vehicle: Klucel (hydroxypropylcellulose) (HPC)
[15] = dose: 400.0 mg/kg/injection, schedule: Q04DX003 (ip), vehicle: Klucel (hydroxypropylcellulose) (HPC)
[16] = dose: 100.0 mg/kg/injection, schedule: Q04DX003 (ip), vehicle: saline with Tween-80
[17] = dose: 200.0 mg/kg/injection, schedule: Q04DX003 (ip), vehicle: saline with Tween-80
[18] = dose: 100.0 mg/kg/injection, schedule: Q04DX002 (ip), vehicle: Klucel (hydroxypropylcellulose) (HPC)
[19] = dose: 200.0 mg/kg/injection, schedule: Q04DX002 (ip), vehicle: Klucel (hydroxypropylcellulose) (HPC)
[20] = dose: 400.0 mg/kg/injection, schedule: Q04DX002 (ip), vehicle: Klucel (hydroxypropylcellulose) (HPC)

Measured: T/C

CCOC(=O)C1CN(C)CCC1=O (stereo not drawn)
inactive: [1] 108 % of control | [2] 123 % of control | [3] 100 % of control | [4] 101 % of control | [5] 98 % of control | [6] 104 % of control | [7] 97 % of control | [8] 96 % of control | [9] 98 % of control

CC1CCC2(NC1)OC1CC3C4CCC5CC(OC6OC(CO)C(OC7OC(CO)C(O)C(OC8OCC(O)C(O)C8O)C7OC7OC(CO)C(O)C(O)C7O)C(O)C6O)CCC5(C)C4CCC3(C)C1C2C (stereo not drawn)
inactive: dose: 12.5 mg/kg/injection, schedule: Q01DX009 (ip), vehicle: saline with Tween-80 93 % of control | dose: 25.0 mg/kg/injection, schedule: Q01DX009 (ip), vehicle: saline with Tween-80 90 % of control | dose: 50.0 mg/kg/injection, schedule: Q01DX009 (ip), vehicle: saline with Tween-80 94 % of control | dose: 100.0 mg/kg/injection, schedule: Q01DX001 (sc), vehicle: steriod suspending solution 95 % of control | dose: 200.0 mg/kg/injection, schedule: Q01DX001 (sc), vehicle: steriod suspending solution 103 % of control | dose: 400.0 mg/kg/injection, schedule: Q01DX001 (sc), vehicle: steriod suspending solution 97 % of control

O=C(OCCc1ccccc1)c1ccccc1
inactive: dose: 100.0 mg/kg/injection, schedule: Q04DX002 (ip), vehicle: saline with Tween-80 100 % of control | dose: 200.0 mg/kg/injection, schedule: Q04DX002 (ip), vehicle: saline with Tween-80 100 % of control | dose: 400.0 mg/kg/injection, schedule: Q04DX002 (ip), vehicle: saline with Tween-80 103 % of control

O=C(N/N=C/c1ccc(O)cc1O)c1cccc2ccccc12
inactive: [1] 92 % of control | [4] 100 % of control | [7] 92 % of control

Cc1ccc(C)c(OS(=O)(=O)c2ccc([N+](=O)[O-])cc2)c1
inactive: [10] 98 % of control | [11] 100 % of control | [12] 92 % of control | [13] 91 % of control | [14] 97 % of control | [15] 89 % of control

CC1C=CC(C(N)C(=O)O)O1 (stereo not drawn)
inactive: [1] 103 % of control | [4] 95 % of control | [7] 101 % of control

CCOCc1cccc(C(=O)NCCCc2c(-c3ccccc3)nc(N)[nH]c2=O)c1
inactive: dose: 36.2 mg/kg/injection, schedule: Q01DX001 (ip), vehicle: Klucel (hydroxypropylcellulose) (HPC) 94 % of control | dose: 62.5 mg/kg/injection, schedule: Q01DX001 (ip), vehicle: Klucel (hydroxypropylcellulose) (HPC) 105 % of control | dose: 125.0 mg/kg/injection, schedule: Q01DX001 (ip), vehicle: Klucel (hydroxypropylcellulose) (HPC) 98 % of control

COc1ccc(Cl)cc1NC(=O)Nc1ccc(Nc2ccccc2)cc1
inactive: [10] 104 % of control | [11] 101 % of control | [12] 101 % of control | [13] 98 % of control | [14] 86 % of control | [15] 97 % of control

Cc1cc(NS(=O)(=O)c2ccccc2)c2c(c1NS(=O)(=O)c1ccccc1)CC=CC2
inactive: [10] 103 % of control | [11] 103 % of control | [12] 100 % of control | [13] 95 % of control | [14] 111 % of control | [15] 94 % of control

CC(C)C(C(=O)c1ccccc1)C(Cl)c1ccccc1 (stereo not drawn)
inactive: dose: 100.0 mg/kg/injection, schedule: Q04DX003 (ip), vehicle: other 94 % of control | dose: 200.0 mg/kg/injection, schedule: Q04DX003 (ip), vehicle: other 102 % of control | dose: 400.0 mg/kg/injection, schedule: Q04DX003 (ip), vehicle: other 93 % of control

O=C(NNC(=O)c1cccc([N+](=O)[O-])c1)C(=O)NNC(=O)c1cccc([N+](=O)[O-])c1
inactive: [10] 100 % of control | [12] 110 % of control | [14] 105 % of control

N=C(N)SCC(CSC(=N)N)c1cnnc2ccccc12 (stereo not drawn)
inactive: [1] 102 % of control

COc1cc(C=C(C(C)=O)C(C)=O)ccc1O
inactive: [16] 112 % of control | [17] 109 % of control

CS(=O)(=O)OCCN(CCOS(C)(=O)=O)c1ccc(C=O)cc1
inactive: dose: 3.8 mg/kg/injection, schedule: Q01DX009 (ip), vehicle: saline 122 % of control | dose: 6.0 mg/kg/injection, schedule: Q01DX001 (ip), vehicle: saline 112 % of control | dose: 7.5 mg/kg/injection, schedule: Q01DX009 (ip), vehicle: saline 113 % of control | dose: 12.0 mg/kg/injection, schedule: Q01DX001 (ip), vehicle: saline 118 % of control | dose: 15.0 mg/kg/injection, schedule: Q01DX009 (ip), vehicle: saline 122 % of control | dose: 25.0 mg/kg/injection, schedule: Q01DX001 (ip), vehicle: saline 120 % of control | dose: 30.0 mg/kg/injection, schedule: Q01DX009 (ip), vehicle: saline 116 % of control | dose: 60.0 mg/kg/injection, schedule: Q01DX009 (ip), vehicle: saline 116 % of control and 118 % of control | dose: 75.0 mg/kg/injection, schedule: Q01DX001 (ip), vehicle: saline 104 % of control | dose: 99.0 mg/kg/injection, schedule: Q01DX009 (ip), vehicle: saline 110 % of control

NC(=S)N/N=C(\c1ccccc1)c1ccccn1
inactive: dose: 12.5 mg/kg/injection, schedule: Q01DX009 (ip), vehicle: gum acacia 101 % of control | dose: 25.0 mg/kg/injection, schedule: Q01DX001 (ip), vehicle: gum acacia 100 % of control | dose: 25.0 mg/kg/injection, schedule: Q01DX009 (ip), vehicle: gum acacia 95 % of control | dose: 25.0 mg/kg/injection, schedule: Q04DX003 (ip), vehicle: gum acacia 105 % of control | dose: 50.0 mg/kg/injection, schedule: Q01DX001 (ip), vehicle: gum acacia 106 % of control | dose: 50.0 mg/kg/injection, schedule: Q01DX009 (ip), vehicle: gum acacia 93 % of control | dose: 50.0 mg/kg/injection, schedule: Q04DX003 (ip), vehicle: gum acacia 100 % of control | dose: 100.0 mg/kg/injection, schedule: Q01DX001 (ip), vehicle: gum acacia 95 % of control

FC(F)(F)c1cccc(NC(=S)NNC(=S)NNc2ccccc2)c1
inactive: [18] 101 % of control | [19] 101 % of control | [20] 101 % of control

CCOC(=O)c1cnc2c(OC)cccc2c1Cl
inactive: [2] 98 % of control | [3] 102 % of control | [5] 96 % of control | [6] 109 % of control | [9] 98 % of control

CCCCCCCC(=O)NO
inactive: [16] 98 % of control | [17] 102 % of control | dose: 400.0 mg/kg/injection, schedule: Q04DX003 (ip), vehicle: saline with Tween-80 102 % of control

O=S(=O)(O)c1cc(I)c(O)c2ncccc12
inactive: [18] 102 % of control | [19] 95 % of control | [20] 95 % of control

Sc1cccc2cccnc12.[Ni]
inactive: dose: 50.0 mg/kg/injection, schedule: Q01DX001 (ip), vehicle: saline 111 % of control | [1] 98 % of control | [4] 98 % of control | [7] 98 % of control

COC(=O)C1C2CCc3cc(OC)ccc3C2CC(=O)C1(C)C(=O)OC (stereo not drawn)
inactive: dose: 100.0 mg/kg/injection, schedule: Q01DX009 (sc), vehicle: steriod suspending solution 98 % of control | dose: 200.0 mg/kg/injection, schedule: Q01DX009 (sc), vehicle: steriod suspending solution 98 % of control | dose: 400.0 mg/kg/injection, schedule: Q01DX009 (sc), vehicle: steriod suspending solution 107 % of control

CCn1c(=O)cn[nH]c1=O
inactive: dose: 50.0 mg/kg/injection, schedule: Q01DX009 (ip), vehicle: saline 97 % of control | [2] 97 % of control | [5] 94 % of control

CCOC(=O)c1ccc(NC(=S)NC(=O)c2ccco2)cc1
inactive: dose: 100.0 mg/kg/injection, schedule: Q01DX009 (ip), vehicle: saline with Tween-80 98 % of control | [11] 102 % of control | dose: 200.0 mg/kg/injection, schedule: Q01DX009 (ip), vehicle: saline with Tween-80 98 % of control | [13] 98 % of control | dose: 400.0 mg/kg/injection, schedule: Q01DX009 (ip), vehicle: saline with Tween-80 98 % of control | [15] 96 % of control

CC1=Nc2ccc([N+](=O)[O-])cc2N=C(C)C1
inactive: [2] 95 % of control | [3] 105 % of control | [5] 93 % of control | [6] 96 % of control | [8] 92 % of control | [9] 96 % of control
